Data reported in patent US8273761B2, “Tricyclic compound and medical use thereof” (Takeda Pharmaceutical Company Limited, priority 2006, dated 2012).
pIC50: −log10 of the molar value.

What follows are molecules tested against T1, human melatonin 2 receptors (human MT2 receptors) (Homo sapiens, UniProt P49286) (assay: Melatonin receptor binding inhibitory test (MT2)). Conditions: 2-[125I] Iodomelatonin 1 nM solution, membrane fraction of CHO-hMT2 cells, 25° C. for 2.5 hr.
T1 construct: expressed in transfected cells
T1 sequence (P49286 1-362): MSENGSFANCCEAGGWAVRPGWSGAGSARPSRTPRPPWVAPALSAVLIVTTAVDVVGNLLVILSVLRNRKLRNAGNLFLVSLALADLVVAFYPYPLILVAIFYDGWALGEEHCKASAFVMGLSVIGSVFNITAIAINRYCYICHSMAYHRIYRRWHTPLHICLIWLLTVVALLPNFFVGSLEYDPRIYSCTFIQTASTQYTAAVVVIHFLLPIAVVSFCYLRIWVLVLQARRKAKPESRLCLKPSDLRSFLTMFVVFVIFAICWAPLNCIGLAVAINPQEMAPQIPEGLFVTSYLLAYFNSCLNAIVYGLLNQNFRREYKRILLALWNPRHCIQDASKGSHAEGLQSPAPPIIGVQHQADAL
Procedure: Melatonin Receptor Binding Inhibitory Test (2) Preparation of CHO-hMT2 Cells Expressing Human Melatonin 2 Receptors A cDNA fragment (SEQ ID NO: 2) encoding full-length of human melatonin 2 receptors (human MT2 receptors) was incorporated into expression vector pCMV-Script (Stratagene, #212220) to give the plasmid that was pCMV-human MT2 receptors expression vector for animal cell expression. CHO-K1 cells (ATCC, #CCL-61) were plated at the concentration of 1.5×10^5 cells/cm^2 in a 6 well plate (ASAHI TECHNO GLASS), and cultured under the conditions of 37° C., 5% CO2 for 24 hr. For gene transfection, solution obtained by blending pCMV-human MT2 receptors expression vector (1.9 μg), Lipofectamine Transfection Reagent (Invitrogen, #18324-012) (11.3 μL) and Minimum Essential Medium Eagle (MEM) medium (Sigma, M8042) (93.8 μL), and reacting at room temperature for 20 min was added to the cells per one well. The transfected cells were cultured in MEM medium containing 10% FBS (Life Technology) and 300 μg/mL Geneticin (GIBCO, #10131), and the cell line that stably expressed the plasmid gene was selected. By a receptor binding assay using 2-[^125I] […] (3) Preparation of Cellular Membrane Fraction of CHO Cell (CHO-hMelR7 and CHO-hMT2) Stably Expressing Human MT1 and MT2 Receptors CHO-hMelR7 and CHO-hMT2 cells were plated using Cellfactory (Nunc, #170009) under the conditions of 1×10^8 cells/2000 mL/flask. The cells were grown to confluent, and recovered by the following method. As the medium for CHO-hMelR7 and CHO-hMT2, MEM α containing 10% FBS and penicillin/streptomycin was used. 300 ng/mL of geneticin was added to the medium for CHO-hMT2. The medium was discarded, cells were washed twice with 200 mL of EDTA/PBS(-), 200 mL of EDTA/PBS(-) was further added, and the cells were stood still at room temperature for 20 min until they were released. The cells were recovered in four 50 mL tubes (Becton Dickinson, #352070), and centrifuged at 1,500 rpm for 10 min at 4° C. using a low speed cooling centrifuge (Hitachi, CF7D2). The supernatant was discarded, the pellets in the four tubes were suspended in 10 mL of PBS(-), and combined in one tube (Becton Dickinson, #352070). The mixture was further centrifuged at 1,500 rpm for 10 min at 4° C., and the obtained pellets were suspended in 20 mL of ice-cooled homogenizing buffer [10 mM NaHCO3, 5 mM EDTA, Protease inhibitor Complete (Roche), pH 7.4]. The cell suspension was homogenized 3 times using a polytron homogenizer at 20,000 rpm for 30 sec. The obtained homogenate was centrifuged (2,000 rpm, 10 min, 4° C.) using a low speed cooling centrifuge. The supernatant was recovered in an ultracentrifugation tube and ultracentrifuged (40,000 rpm, 60 min, 4° C.) using an ultracentrifuge (Beckman, […]). To the obtained pellets was added a suspending buffer [50 mM Tris-HCl, 1 mM EDTA, Protease inhibitor Complete (Roche), pH 7.4], and the pellets were suspended by pipetting. The protein concentration of this suspension was measured, diluted to 2 mg/mL to give cellular membrane fractions of CHO-hMelR7 and CHO-hMT2 cells. […] Protein was quantified using BCA protein assay kit (Pierce) with BSA as the standard. (4) Preparation of Membrane Fraction Suspension Immediately before use, the membrane fractions of CHO-hMelR7 and CHO-hMT2 cells of the above-mentioned (3) were diluted 20-fold with assay buffer (50 mM Tris-HCl, pH 7.7). (5) Preparation of 2-[^125I] […] (6) Binding Reaction The assay buffer (80 μL) of the above-mentioned (4) was added to each well of a 96-well plate (type 3363, Corning). […] (7) Measurement Using a cell harvester (PerkinElmer), the binding reaction mixture in each well of the 96-well plate was transferred to a treated (immersed in 50 mM Tris, pH 7.7 in advance) filter plate (UniFilter GF/C, PerkinElmer) and filtered.

pIC50, ≥ 7.00:
CC(=O)NCCc1c(-c2ccccc2)cn2ccc3c(c12)CCO3 [Example 17, N-[2-(8-phenyl-1,2-dihydrofuro[2,3-g]indolizin-9-yl)ethyl]acetamide]
CCC(=O)NCCc1c(-c2ccccc2)nn2ccc3c(c12)CCO3 [Example 8, N-[2-(2-phenyl-8,9-dihydrofuro[3,2-c]pyrazolo[1,5-a]pyridin-1-yl)ethyl]propanamide]
CC(=O)NCCC1=C(C(C)C)Cc2cnc3c(c21)CCO3 [Example 30, N-[2-(7-isopropyl-1,6-dihydro-2H-cyclopenta[d]furo[2,3-b]pyridin-8-yl)ethyl]acetamide]
CCc1nn2ccc3oc(C)cc3c2c1CCNC(C)=O [Example 39, N-[2-(2-ethyl-8-methylfuro[3,2-c]pyrazolo[1,5-a]pyridin-1-yl)ethyl]acetamide]
CCCC(=O)NCCC1CCc2cnc3c(c21)CCO3 (stereo not drawn) [Example 25, N-[2-(1,6,7,8-tetrahydro-2H-cyclopenta[d]furo[2,3-b]pyridin-8-yl)ethyl]butanamide]
CCC(=O)NCCC1=CCc2cnc3c(c21)CCO3 [Example 29, N-[2-(1,6-dihydro-2H-cyclopenta[d]furo[2,3-b]pyridin-8-yl)ethyl]propanamide]
CCC(=O)NCCc1cnn2ccc3c(c12)CCO3 [Example 4, N-[2-(8,9-dihydrofuro[3,2-c]pyrazolo[1,5-a]pyridin-1-yl)ethyl]propanamide]
CCC(=O)NCCc1c(-c2ccccc2)nn2ccc3occc3c12 [Example 2, N-[2-(2-phenylfuro[3,2-c]pyrazolo[1,5-a]pyridin-1-yl)ethyl]propanamide]
CCC(=O)NCCC1CCc2cnc3c(c21)CCO3 (single isomer, unassigned) [Example 23, optically active N-[2-(1,6,7,8-tetrahydro-2H-cyclopenta[d]furo[2,3-b]pyridin-8-yl)ethyl]propanamide]
CCC(=O)NCCc1c(-c2ccc(F)cc2)nn2ccc3c(c12)CCO3 [Example 16, N-{2-[2-(4-fluorophenyl)-8,9-dihydrofuro[3,2-c]pyrazolo[1,5-a]pyridin-1-yl]ethyl}propanamide]
CC(=O)NCCc1cnn2ccc3c(c12)CCO3 [Example 3, N-[2-(8,9-dihydrofuro[3,2-c]pyrazolo[1,5-a]pyridin-1-yl)ethyl]acetamide]
CCC(=O)NCCC1=C(C(C)C)Cc2cnc3c(c21)CCO3 [Example 31, N-[2-(7-isopropyl-1,6-dihydro-2H-cyclopenta[d]furo[2,3-b]pyridin-8-yl)ethyl]propanamide]
CC(=O)NCCc1c(-c2ccc(F)cc2)nn2ccc3c(c12)CCO3 [Example 15, N-{2-[2-(4-fluorophenyl)-8,9-dihydrofuro[3,2-c]pyrazolo[1,5-a]pyridin-1-yl]ethyl}acetamide]
CCCC(=O)NCCc1cnn2ccc3c(c12)CCO3 [Example 5, N-[2-(8,9-dihydrofuro[3,2-c]pyrazolo[1,5-a]pyridin-1-yl)ethyl]butanamide]
CC(=O)NCCC1CCc2cnc3c(c21)CCO3 (single isomer, unassigned) [Example 20, optically active N-[2-(1,6,7,8-tetrahydro-2H-cyclopenta[d]furo[2,3-b]pyridin-8-yl)ethyl]acetamide]
CCC(=O)NCC(C)c1c(CC)nn2ccc3c(c12)CCO3 (stereo not drawn) [Example 38, N-[2-(2-ethyl-8,9-dihydrofuro[3,2-c]pyrazolo[1,5-a]pyridin-1-yl)propyl]propanamide]
CCc1nn2ccc3c(c2c1C(C)CNC(C)=O)CCO3 (stereo not drawn) [Example 37, N-[2-(2-ethyl-8,9-dihydrofuro[3,2-c]pyrazolo[1,5-a]pyridin-1-yl)propyl]acetamide]
CCC(=O)NCCC1CCc2cnc3c(c21)CCO3 (stereo not drawn) [Example 22, N-[2-(1,6,7,8-tetrahydro-2H-cyclopenta[d]furo[2,3-b]pyridin-8-yl)ethyl]propanamide]
